Results from EP0167945A2, “Phenylethylaminopropiophenone derivatives, process for their preparation et medicines containing them” (Troponwerke GmbH & Co. KG, priority 1984, dated 1986).
Structures can show the parent of a compound that is named as a salt.

Key:
[1] = system: Amphetamininduzierte stereotype Verhalten; test: Amphetamine potentiation (potentiation of amphetamine-induced stereotyped behaviour); type: in vivo, Ratte; conditions: ip; dose at which behaviour induced by 2 mg/kg DL-Amphetaminsulfat i. v. is enhanced by 50 %; rat; read-out: DE50 (the source's name)
Source text: (§1) Die Verbindungen wurden auf anxiolytische, nootrope und antidepressive Eigenschaften geprüft. Als Leittest für die anxiolytische Wirkung diente die Antagonisierung der Fußschock-induzierten Aggressivität nach Tedeschi^1; für die antidepressive Wirkung der Antitetrabenazin^2- und Amphetaminpotenzierungstest . Beispielsweise wurden für die antidepressiven Wirkungen der erfindungsgemäßen Substanzen folgende Werte erhalten:
2) Amphetamin-Potenzierung
Antidepressiv wirksame Substanzen potenzieren das Amphetamininduzierte stereotype Verhalten bei der Ratte.
Der angegebene DE50-Wert ist die Dosis, bei der das Amphetamininduzierte Verhalten nach Gabe von 2 mg/kg DL-Amphetaminsulfat i. v. um 50 % verstärkt ist.

[2] = system: durch Tetrabenazin induzierte Ptosis; test: Tetrabenazine antagonism (antagonism of tetrabenazine-induced ptosis); type: in vivo, Mäusen; conditions: Mus musculus, ip; dose at which ptosis induced by 20 mg/kg i.p. Tetrabenazin is reduced by 50 %; mice; read-out: DE50 (the source's name)
Source text: as §1
1) Tetrabenazin Antagonismus
Antidepressiv wirksame Substanzen antagonisieren die durch Tetrabenazin induzierte Ptosis bei Mäusen. Der DE50-Wert gibt diejenige Dosis an, bei der die durch 20 mg/kg i.p. Tetrabenazin induzierte Ptosis zu 50 % reduziert ist. Dazu seien Beispiele genannt:
• 1 Tedeschi et al., J. Pharmacol. Exp. Ther. 129, 28-34, 1959 • 2 J. L. Howard et al., in: Antidepressants: Neurochemical,.Behavioral and Clinical Perspectives, herausgegeben von S. J. Enna et al., Raven Press N. Y., S. 107-120, 1981.

Row | Structure (SMILES) | ED50 [1] [mg/kg] | ED50 [2] [mg/kg]
1 | CC(NC(C)(C)Cc1ccccc1)C(=O)c1cccc(Cl)c1 (stereo not shown) [Beispiel 1, 1-(3-Chlorphenyl)-2-(1,1-dimethyl-2-phenylethylamino)propan-1-onhydrochlorid] | 13 | 1
2 | CC(NC(C)(C)Cc1ccccc1)C(=O)c1cccc(C(F)(F)F)c1 (stereo not shown) [Beispiel 7, 1-(3-Trifluormethylphenyl)-2-(1,1-dimethyl-2-phenylethylamino)propan-1-onhydrochlorid] | – | 10
3 | CC(NC(C)(C)Cc1ccccc1)C(=O)c1cccc(F)c1 (stereo not shown) [Beispiel 6, 1-(3-Fluorphenyl)-2-(1,1-dimethyl-2-phenylethylamino)propan-1-onhydrochlorid] | – | 6
4 | CC(Cc1ccccc1)NC(C)C(=O)c1cccc(Cl)c1 (stereo not shown) [Beispiel 2, 1-(3-Chlorphenyl)-2-(1-methyl-2-phenyl-ethylamino) propan-1-onhydrochlorid] | 6 | 14
5 | CC(NC(C)(C)Cc1ccccc1)C(=O)c1ccccc1 (stereo not shown) [Beispiel 4, 1-Phenyl-2-(1,1-dimethyl-2-phenylethylamino)-propan-1-onhydrochlorid] | – | 19
6 | CC(NC(C)(C)Cc1ccc(Cl)cc1)C(=O)c1cccc(Cl)c1 (stereo not shown) [Beispiel 3, 1-(3-Chlorphenyl)-2-(1,1-dimethyl-2-(4-chlor-phenyl)ethylamino)propan-1-onhydrochlorid] | 9 | 12
7 | COc1ccc(CC(C)(C)NC(C)C(=O)c2cccc(Cl)c2)cc1 (stereo not shown) [Beispiel 5, 1-(3-Chlorphenyl)-2-(1,1-dimethyl-2-(4-methoxyphenyl)ethylamino)propan-1-onhydrochlorid] | – | 6.5
